Data from US8927500B2, “Peptidomimetic macrocycles” (Aileron Therapeutics, Inc., priority 2012, dated 2015).
pIC50, pKi: −log10 of the molar value. Where a SMILES comes first, the peptide text is derived from it. Bridges are numbered along the chain shown (N, C = ends). [ ]: non-standard residue; d: D form. Phe(4-COOH) = N[C@@H](Cc1ccc(C(=O)O)cc1)C(=O)O; R8 = C=CCCCCCC[C@@](C)(N)C(=O)O; Cba = N[C@@H](CC1CCC1)C(=O)O; S5 = C=CCCC[C@](C)(N)C(=O)O; Nle = CCCC[C@H](N)C(=O)O

How the values were obtained:
MDM2 = MDM2 (Homo sapiens, UniProt Q00987); test: Competitive fluorescence polarization assay for MDM2; format: binding; details: competitive FP assay, MDM2; for pIC50: read-out: IC50 (MDM2); for pKi: read-out: Ki (MDM2)
SJSA-1 cells = test: Cell lysis by peptidomimetic macrocycles (LDH release); format: cell-based; details: 1 h at 37C
Caspase 3 = Caspase 3 detection assay in SJSA1 cells; format: cell-based; details: 48 h, Caspase 3 activation over DMSO-treated cells; for caspase 0.3 uM: 0.3 uM peptide; for caspase 3 uM: 3 uM peptide; for caspase 10 uM: 10 uM peptide; for caspase 30 uM: 30 uM peptide
MDMX = target: T1, MDMX (Homo sapiens, UniProt O15151); test: Competitive fluorescence polarization assay for MDMX; format: binding; details: competitive FP assay; for pIC50: read-out: IC50 (MDMX); for pKi: read-out: Ki (MDMX)
T1 sequence (O15151 1-125): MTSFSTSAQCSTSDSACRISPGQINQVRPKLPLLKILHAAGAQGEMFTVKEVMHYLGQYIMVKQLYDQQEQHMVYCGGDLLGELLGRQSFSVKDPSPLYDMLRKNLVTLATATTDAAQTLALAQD

Sequence of MDM2 (Q00987 1-125): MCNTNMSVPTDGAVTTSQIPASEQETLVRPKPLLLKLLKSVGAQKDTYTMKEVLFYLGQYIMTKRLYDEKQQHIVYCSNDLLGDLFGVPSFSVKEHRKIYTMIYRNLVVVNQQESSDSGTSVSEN

Row | SMILES | pIC50 (MDM2) | pKi (MDM2) | 6.25 uM % Lysed cells (1 h LDH) (SJSA-1 cells) | 25 uM % Lysed cells (1 h LDH) (SJSA-1 cells) | 50 uM % Lysed cells (1 h LDH) (SJSA-1 cells) | caspase 0.3 uM (Caspase 3) | caspase 3 uM (Caspase 3) | caspase 10 uM (Caspase 3) | caspase 30 uM (Caspase 3) | pIC50 (MDMX) | pKi (MDMX)
1 | CC(=O)N[C@@H](CC(C)C)C(=O)N[C@H](C(=O)N[C@@H](Cc1ccccc1)C(=O)N[C@]1(C)CCCCCCC=CCCC[C@@](C)(C(=O)N[C@@H](CO)C(=O)N[C@@H](C)C(=O)N[C@@H](C)C(N)=O)NC(=O)[C@H](CC(C)C)NC(=O)[C@H](C)NC(=O)[C@H](C(C)C)NC(=O)[C@H](Cc2c[nH]c3ccccc23)NC(=O)[C@H](Cc2ccc(O)cc2)NC(=O)[C@H](C)NC1=O)[C@@H](C)O [compound 196] (Ac-LTF[R8]AYWVAL[S5]SAA-NH2; staple 4-11) | 7.00 to 8.00 | > 8.00 | 0% | 0% | 3% | 1 | 4 | 33 | 26 | 6.00 to 7.00 | 7.00 to 8.00
2 | CCCC[C@H](NC(=O)[C@H](C)NC(=O)[C@H](CO)NC(=O)[C@]1(C)CCCC=CCCCCCC[C@@](C)(NC(=O)[C@H](Cc2ccccc2)NC(=O)[C@@H](NC(=O)[C@H](CC(C)C)NC(C)=O)[C@@H](C)O)C(=O)N[C@@H](CCC(=O)O)C(=O)N[C@@H](Cc2ccc(C(=O)O)cc2)C(=O)N[C@@H](Cc2c[nH]c3ccccc23)C(=O)N[C@@H](C)C(=O)N[C@@H](CCC(N)=O)C(=O)N[C@@H](CC2CCC2)C(=O)N1)C(=O)N[C@@H](C)C(N)=O [compound 244] (Ac-LTF[R8]E[Phe(4-COOH)]WAQ[Cba][S5]SA[Nle]A-NH2; staple 4-11) | 7.00 to 8.00 | > 8.00 | 0% | 0% | 4% | 1 | 2 | 7 | 17 | 7.00 to 8.00 | > 8.00
3 | CC(=O)N[C@@H](CC(C)C)C(=O)N[C@H](C(=O)N[C@@H](Cc1ccccc1)C(=O)N[C@]1(C)CCCCCCC=CCCC[C@@](C)(C(=O)N[C@@H](CO)C(=O)N[C@@H](C)C(=O)N[C@@H](CO)C(N)=O)NC(=O)[C@H](CC(C)C)NC(=O)[C@H](CCC(N)=O)NC(=O)[C@H](C)NC(=O)[C@H](Cc2c[nH]c3ccccc23)NC(=O)[C@H](Cc2ccc(O)cc2)NC(=O)[C@H](C(C)C)NC1=O)[C@@H](C)O (single isomer, unassigned) [compound 144] | > 8.00 | > 8.00 | 1% | −1% | 2% | 1 | 4 | 10 | 16 | 6.00 to 7.00 | 7.00 to 8.00
4 | CC[C@H](C)[C@H](NC(=O)[C@H](C)NC(=O)[C@H](C)NC(=O)[C@]1(C)CCC/C=C/CCCCCC[C@@](C)(NC(=O)[C@H](Cc2ccccc2)NC(=O)[C@@H](NC(=O)[C@H](CC(C)C)NC(C)=O)[C@@H](C)O)C(=O)N[C@@H](CCC(=O)O)C(=O)N[C@@H](Cc2ccc(C(=O)O)cc2)C(=O)N[C@@H](Cc2c[nH]c3ccccc23)C(=O)N[C@@H](C)C(=O)N[C@@H](CCC(N)=O)C(=O)N[C@@H](CC2CCC2)C(=O)N1)C(=O)N[C@H](C)C(N)=O [compound 249] (Ac-LTF[R8]E[Phe(4-COOH)]WAQ[Cba][S5]AAI[dA]-NH2; staple (E) 4-11) | 7.00 to 8.00 | > 8.00 | 0% | 0% | 0% | 2 | 5 | 11 | 23 | 7.00 to 8.00 | > 8.00
5 | CCCC[C@H](NC(=O)[C@H](C)NC(=O)[C@H](C)NC(=O)[C@]1(C)CCCC=CCCCCCC[C@@](C)(NC(=O)[C@H](Cc2ccccc2)NC(=O)[C@@H](NC(=O)[C@H](CCC(=O)O)NC(C)=O)[C@@H](C)O)C(=O)N[C@@H](C)C(=O)N[C@@H](Cc2ccc(O)cc2)C(=O)N[C@@H](Cc2c[nH]c3ccccc23)C(=O)N[C@@H](C)C(=O)N[C@@H](CCC(N)=O)C(=O)N[C@@H](CC2CCC2)C(=O)N1)C(=O)N[C@@H](C)C(N)=O [compound 237] (Ac-ETF[R8]AYWAQ[Cba][S5]AA[Nle]A-NH2; staple 4-11) | 7.00 to 8.00 | > 8.00 | 0% | 7% | 55% | 1 | 5 | 9 | 15 | 6.00 to 7.00 | 7.00 to 8.00
6 | CC[C@H](C)[C@H](NC(=O)[C@H](C)NC(=O)[C@H](C)NC(=O)[C@]1(C)CCCC=CCCCCCC[C@@](C)(NC(=O)[C@H](Cc2ccccc2)NC(=O)[C@@H](NC(=O)[C@H](CC(C)C)NC(C)=O)[C@@H](C)O)C(=O)N[C@@H](C)C(=O)N[C@@H](Cc2c[nH]cn2)C(=O)N[C@@H](Cc2c[nH]c3ccccc23)C(=O)N[C@@H](C)C(=O)N[C@@H](CCC(N)=O)C(=O)N[C@@H](CC(C)C)C(=O)N1)C(=O)N[C@H](C)C(N)=O [compound 170] (Ac-LTF[R8]AHWAQL[S5]AAI[dA]-NH2; staple 4-11) | > 8.00 | > 8.00 | 2% | 1% | −1% | 1 | 1 | 16 | 20 | 6.00 to 7.00 | 7.00 to 8.00
7 | CCCC[C@H](NC(=O)[C@H](C)NC(=O)[C@H](CO)NC(=O)[C@]1(C)CCCC=CCCCCCC[C@@](C)(NC(=O)[C@H](Cc2ccccc2)NC(=O)[C@@H](NC(=O)[C@H](CC(C)C)NC(C)=O)[C@@H](C)O)C(=O)N[C@@H](CCC(=O)O)C(=O)N[C@@H](Cc2ccc(O)cc2)C(=O)N[C@@H](Cc2c[nH]c3ccccc23)C(=O)N[C@@H](CO)C(=O)N[C@@H](CCC(N)=O)C(=O)N[C@@H](CC2CCC2)C(=O)N1)C(=O)N[C@@H](C)C(N)=O [compound 245] (Ac-LTF[R8]EYWSQ[Cba][S5]SA[Nle]A-NH2; staple 4-11) | 7.00 to 8.00 | > 8.00 | 1% | 11% | 56% | 1 | 3 | 9 | 16 | 7.00 to 8.00 | 7.00 to 8.00
8 | CC(=O)N[C@@H](CC(C)C)C(=O)N[C@H](C(=O)N[C@@H](Cc1ccccc1)C(=O)N[C@]1(C)CCCCCCC=CCCC[C@@](C)(C(=O)N[C@@H](CO)C(=O)N[C@H](C(=O)N[C@@H](CO)C(N)=O)C(C)C)NC(=O)[C@H](CC(C)C)NC(=O)[C@H](CCC(N)=O)NC(=O)[C@H](C)NC(=O)[C@H](Cc2c[nH]c3ccccc23)NC(=O)[C@H](Cc2ccc(O)cc2)NC(=O)[C@H](C(C)C)NC1=O)[C@@H](C)O (single isomer, unassigned) [compound 142] | > 8.00 | > 8.00 | 1% | 1% | 3% | 1 | 2 | 15 | 20 | 7.00 to 8.00 | 7.00 to 8.00
9 | CCCC[C@H](NC(=O)[C@H](C)NC(=O)[C@H](C)NC(=O)[C@]1(C)CCCC=CCCCCCC[C@@](C)(NC(=O)[C@H](Cc2ccccc2)NC(=O)[C@@H](NC(=O)[C@H](CC(C)C)NC(C)=O)[C@@H](C)O)C(=O)N[C@@H](C)C(=O)N[C@@H](Cc2ccc(O)cc2)C(=O)N[C@@H](Cc2c[nH]c3ccccc23)C(=O)N[C@@H](C)C(=O)N[C@@H](C)C(=O)N[C@@H](CC(C)C)C(=O)N1)C(=O)N[C@@H](C(N)=O)C(C)C (single isomer, unassigned) [compound 80] | 7.00 to 8.00 | > 8.00 | 0% | 1% | 5% | 1 | 2 | 13 | 20 | 6.00 to 7.00 | 7.00 to 8.00
